# From article PMC8376931, “Structure activity relationships and the binding mode of quinolinone-pyrimidine hybrids as reversal agents of multidrug resistance mediated by P-gp” (Scientific Reports, 2021)
# Where two headings read alike, the source gives them in different places.
# Legend:
# P-gp = P-gp (Homo sapiens, UniProt P08183); details: 1 h
# Experimental: (§1) The intracellular accumulation of the fluorescent probes, Dox and Rho123, was determined by monitoring its fluorescence intensity using flow cytometry (96-well plate format), as previously reported. The inhibition on the outward transport of these P-gp substrates results in an increased […] fluorescence intensity (MFI). […] Those compounds showing inhibition on P-gp at the maximum tested concentration were further evaluated at serial dilutions to determinate their MECs. […] The plates were then incubated in a 5% CO2 incubator for 1 h at 37 °C. Afterwards, 5 μM Dox was added to each well. The other fluorescent specific substrate of P-gp, Rho123, however, was added at 500 ng/mL to additionally measure the ability of the most promising compounds to block its efflux. Subsequently, cells from both assays were washed twice with cold PBS, and 15,000 events from each sample were analyzed to determine the cell-associated fluorescence. Dead cells were eliminated by means of forward- and side-scatter parameters. […] The blocking of the P-gp transport function was evaluated by the parameter FIR, calculated as the ratio of the MFI of Dox or Rho123 with the addition of the likely inhibitor to the MFI of Dox or Rho123 alone.
# K562 cells = assay: Doxorubicin intracellular accumulation assay (flow cytometry) in K562; format: cell-based; parameters: key: MFI with inhibitor / MFI of Dox alone; details: 5 μM Dox
# Experimental: as §1
# P-gp, sequence (P08183 whole entry): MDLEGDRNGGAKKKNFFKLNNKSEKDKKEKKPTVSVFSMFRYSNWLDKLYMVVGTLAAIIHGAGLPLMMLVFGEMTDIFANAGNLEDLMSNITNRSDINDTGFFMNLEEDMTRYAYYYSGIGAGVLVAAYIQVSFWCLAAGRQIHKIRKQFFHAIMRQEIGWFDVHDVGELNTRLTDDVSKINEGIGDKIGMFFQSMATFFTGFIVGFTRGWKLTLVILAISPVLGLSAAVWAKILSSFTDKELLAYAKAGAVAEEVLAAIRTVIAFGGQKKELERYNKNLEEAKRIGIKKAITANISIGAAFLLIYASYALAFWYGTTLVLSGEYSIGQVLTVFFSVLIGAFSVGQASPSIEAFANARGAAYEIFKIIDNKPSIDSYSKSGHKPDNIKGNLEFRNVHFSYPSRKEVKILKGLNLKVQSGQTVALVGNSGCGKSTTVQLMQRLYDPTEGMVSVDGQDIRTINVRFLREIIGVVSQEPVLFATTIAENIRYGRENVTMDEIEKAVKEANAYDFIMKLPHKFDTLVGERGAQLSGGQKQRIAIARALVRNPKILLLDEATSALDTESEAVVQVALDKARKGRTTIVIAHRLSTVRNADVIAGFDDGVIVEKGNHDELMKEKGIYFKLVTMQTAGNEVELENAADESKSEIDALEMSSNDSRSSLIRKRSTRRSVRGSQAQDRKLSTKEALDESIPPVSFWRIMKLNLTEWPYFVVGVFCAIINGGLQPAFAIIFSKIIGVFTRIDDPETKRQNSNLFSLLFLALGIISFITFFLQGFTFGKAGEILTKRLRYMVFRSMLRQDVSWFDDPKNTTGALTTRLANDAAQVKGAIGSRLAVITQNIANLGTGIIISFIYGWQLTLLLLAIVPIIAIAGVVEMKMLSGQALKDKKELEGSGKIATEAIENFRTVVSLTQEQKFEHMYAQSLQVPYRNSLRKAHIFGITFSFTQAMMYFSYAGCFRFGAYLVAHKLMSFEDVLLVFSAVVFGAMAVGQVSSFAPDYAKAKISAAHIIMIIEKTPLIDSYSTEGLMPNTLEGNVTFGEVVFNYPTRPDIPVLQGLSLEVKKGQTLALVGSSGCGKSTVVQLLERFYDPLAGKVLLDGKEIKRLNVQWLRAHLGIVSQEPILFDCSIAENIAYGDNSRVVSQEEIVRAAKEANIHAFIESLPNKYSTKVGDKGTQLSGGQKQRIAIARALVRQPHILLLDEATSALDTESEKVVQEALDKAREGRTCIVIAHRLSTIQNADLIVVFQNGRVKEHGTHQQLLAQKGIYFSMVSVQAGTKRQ
smiles,measurement,setting,value
O=c1[nH]c2ccccc2cc1CNc1ccc(Nc2nccc(-c3ccc(Cl)cc3)n2)cc1 [Compound 4a],"minimum effective concentration (MEC), Dox accumulation",P-gp,20 µM
same,FIR Lucena 1,P-gp; 10 µM,1.03 ± 0.01
same,FIR Lucena 1,P-gp; 20 µM,1.21 ± 0.04
same,FIR K562,K562 cells; compound 20 µM,0.89 ± 0.03
O=c1[nH]c2ccccc2cc1CN1CCN(c2nccc(-c3ccc4ccccc4c3)n2)CC1 [Compound 7a],"minimum effective concentration (MEC), Dox accumulation",P-gp,1.25 µM
same,FIR Lucena 1,P-gp; 0.62 µM,0.95 ± 0.02
same,FIR Lucena 1,P-gp; 1.25 µM,1.10 ± 0.03
same,FIR Lucena 1,P-gp; 2.5 µM,1.28 ± 0.12
same,FIR Lucena 1,P-gp; 5 µM,1.38 ± 0.11
same,FIR Lucena 1,P-gp; 10 µM,1.52 ± 0.17
same,FIR Lucena 1,P-gp; 20 µM,1.33 ± 0.11
same,FIR K562,K562 cells; compound 20 µM,1.02 ± 0.07
NCCN1CCN(c2nccc(-c3ccc(Cl)cc3)n2)CC1 [Compound 10],"minimum effective concentration (MEC), Dox accumulation",P-gp,1.25 µM
same,FIR Lucena 1,P-gp; 0.62 µM,1.06 ± 0.04
same,FIR Lucena 1,P-gp; 1.25 µM,1.11 ± 0.03
same,FIR Lucena 1,P-gp; 2.5 µM,1.26 ± 0.04
same,FIR Lucena 1,P-gp; 5 µM,1.41 ± 0.09
same,FIR Lucena 1,P-gp; 10 µM,1.30 ± 0.05
same,FIR Lucena 1,P-gp; 20 µM,1.72 ± 0.14
same,FIR K562,K562 cells; compound 10 µM,0.98 ± 0.06
same,FIR K562,K562 cells; compound 20 µM,1.18 ± 0.03
COc1ccc2[nH]c(=O)c(CN3CCN(c4nccc(-c5ccc(Cl)cc5)n4)CC3)cc2c1 [Compound 6b],"minimum effective concentration (MEC), Dox accumulation",P-gp,2.5 µM
same,FIR Lucena 1,P-gp; 1.25 µM,1.01 ± 0.03
same,FIR Lucena 1,P-gp; 2.5 µM,1.15 ± 0.05
same,FIR Lucena 1,P-gp; 5 µM,1.32 ± 0.09
same,FIR Lucena 1,P-gp; 10 µM,1.44 ± 0.13
same,FIR Lucena 1,P-gp; 20 µM,1.55 ± 0.07
same,FIR K562,K562 cells; compound 20 µM,0.94 ± 0.10
O=c1[nH]c2ccccc2cc1CNc1ccc(Nc2nccc(-c3ccc4ccccc4c3)n2)cc1 [Compound 5a],"minimum effective concentration (MEC), Dox accumulation",P-gp,2.50 µM
same,FIR Lucena 1,P-gp; 1.25 µM,0.95 ± 0.05
same,FIR Lucena 1,P-gp; 2.5 µM,1.05 ± 0.01
same,FIR Lucena 1,P-gp; 5 µM,1.06 ± 0.01
same,FIR Lucena 1,P-gp; 10 µM,1.10 ± 0.02
same,FIR Lucena 1,P-gp; 20 µM,1.24 ± 0.07
same,FIR K562,K562 cells; compound 20 µM,0.86 ± 0.02
COc1ccc2[nH]c(=O)c(CNc3ccc(Nc4nccc(-c5ccc(Cl)cc5)n4)cc3)cc2c1 [Compound 4b],"minimum effective concentration (MEC), Dox accumulation",P-gp,2.5 µM
same,FIR Lucena 1,P-gp; 1.25 µM,1.10 ± 0.13
same,FIR Lucena 1,P-gp; 2.5 µM,1.20 ± 0.06
same,FIR Lucena 1,P-gp; 5 µM,1.20 ± 0.06
same,FIR Lucena 1,P-gp; 10 µM,1.23 ± 0.08
same,FIR Lucena 1,P-gp; 20 µM,1.29 ± 0.08
same,FIR K562,K562 cells; compound 20 µM,0.90 ± 0.03
COc1ccc2[nH]c(=O)c(CNc3ccc(Nc4nccc(-c5ccc6ccccc6c5)n4)cc3)cc2c1 [Compound 5b],"minimum effective concentration (MEC), Dox accumulation",P-gp,0.62 µM
same,FIR Lucena 1,P-gp; 0.31 µM,1.07 ± 0.03
same,FIR Lucena 1,P-gp; 0.62 µM,1.16 ± 0.07
same,FIR Lucena 1,P-gp; 1.25 µM,1.21 ± 0.07
same,FIR Lucena 1,P-gp; 2.5 µM,1.29 ± 0.08
same,FIR Lucena 1,P-gp; 5 µM,1.31 ± 0.08
same,FIR Lucena 1,P-gp; 10 µM,1.25 ± 0.07
same,FIR Lucena 1,P-gp; 20 µM,1.36 ± 0.08
same,FIR K562,K562 cells; compound 20 µM,0.96 ± 0.02
Clc1ccc(-c2ccnc(N3CCNCC3)n2)cc1 [Compound 6],FIR Lucena 1,P-gp; 1.25 µM,1.09 ± 0.06
same,FIR Lucena 1,P-gp; 2.5 µM,1.18 ± 0.04
same,FIR Lucena 1,P-gp; 5 µM,1.18 ± 0.03
same,FIR Lucena 1,P-gp; 10 µM,1.38 ± 0.08
same,FIR Lucena 1,P-gp; 20 µM,1.65 ± 0.12
same,FIR K562,K562 cells; compound 5 µM,1.09 ± 0.04
same,FIR K562,K562 cells; compound 10 µM,1.19 ± 0.02
same,FIR K562,K562 cells; compound 20 µM,1.20 ± 0.02
"COc1ccc(CCN(C)CCCC(C#N)(c2ccc(OC)c(OC)c2)C(C)C)cc1OC (stereo not drawn) [verapamil, reference compound]",FIR K562,K562 cells; compound 20 µM,1.08 ± 0.05
